Results published in ChEMBL document CHEMBL1201862, “PubChem BioAssay data set” (2004).
Active and inactive are the calls of the source.

Tests used:
HeLa = assay: ATP-based viability loss in HeLa cells – cell-based, CellTiter-Glo luminescence, cherry-pick samples, cytotoxicity control for MITF activator project, dose response (AID 540259); type: functional; settings: Homo sapiens
[1] = biological target: Dual specificity tyrosine-phosphorylation-regulated kinase 1A (Rattus norvegicus, UniProt Q63470); type: biochemical, Homo sapiens
[2] = biological target: 26S proteasome non-ATPase regulatory subunit 14 (Homo sapiens, UniProt O00487); assay: inhibition of proteasome subunit RPN11 – biochemical, fluorescence polarization, uHTS hits, confirmation (AID 602368); type: functional
[3] = biological target: 72 kDa type IV collagenase (Homo sapiens, UniProt P08253); assay: Dose Response validation of uHTS RPN11 inhibitor hits using a MMP-2 Fluorescence assay.; type: functional
Prothrombin = Prothrombin (Bos taurus, UniProt P00735); assay: thrombin protease inhibitors – biochemical, fluorescence polarization, uHTS hits, dose response (AID 602369); type: functional
[4] = viability of PTEN-deleted HCT116 cells – cell-based, HCT116 PTEN knockout, dose response (AID 1047); type: functional;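 note: HCT116 colon tumor cells with PTEN knocked out; cells exposed to compound for 60 hours before readout; potency for loss of cell viability measured by luminescence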
[5] = viability of HCT116 lacking mutant beta-catenin – cell-based, human colon tumor, dose response (AID 1045); type: functional;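 note: HCT116 colon tumor cells with beta catenin knocked out; cells exposed to compound for 60 hours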
Vero = assay: cells; type: functional; settings: Chlorocebus sabaeus
Caspase-3 = biological target: T1, Caspase-3 (Homo sapiens, UniProt P42574); type: functional;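 note: Dose-response selectivity test against caspase-3 for candidate inhibitors of sentrin-specific proteases (SENPs)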
T1 sequence (P42574 whole entry): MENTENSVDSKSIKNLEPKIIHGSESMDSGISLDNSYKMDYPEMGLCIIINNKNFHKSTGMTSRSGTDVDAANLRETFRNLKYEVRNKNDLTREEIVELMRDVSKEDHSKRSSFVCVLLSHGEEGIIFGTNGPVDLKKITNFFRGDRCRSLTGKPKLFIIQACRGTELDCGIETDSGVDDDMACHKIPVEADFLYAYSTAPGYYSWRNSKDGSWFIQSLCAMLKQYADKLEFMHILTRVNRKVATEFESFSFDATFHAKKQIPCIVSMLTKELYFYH

[6] = biological target: T2, Sentrin-specific protease 7 (Homo sapiens, UniProt Q9BQF6); type: functional;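 note: Luminescence-based dose-response confirmation of ultra-high-throughput screening hits, measuring inhibition of SENP7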
T2 sequence (Q9BQF6 whole entry): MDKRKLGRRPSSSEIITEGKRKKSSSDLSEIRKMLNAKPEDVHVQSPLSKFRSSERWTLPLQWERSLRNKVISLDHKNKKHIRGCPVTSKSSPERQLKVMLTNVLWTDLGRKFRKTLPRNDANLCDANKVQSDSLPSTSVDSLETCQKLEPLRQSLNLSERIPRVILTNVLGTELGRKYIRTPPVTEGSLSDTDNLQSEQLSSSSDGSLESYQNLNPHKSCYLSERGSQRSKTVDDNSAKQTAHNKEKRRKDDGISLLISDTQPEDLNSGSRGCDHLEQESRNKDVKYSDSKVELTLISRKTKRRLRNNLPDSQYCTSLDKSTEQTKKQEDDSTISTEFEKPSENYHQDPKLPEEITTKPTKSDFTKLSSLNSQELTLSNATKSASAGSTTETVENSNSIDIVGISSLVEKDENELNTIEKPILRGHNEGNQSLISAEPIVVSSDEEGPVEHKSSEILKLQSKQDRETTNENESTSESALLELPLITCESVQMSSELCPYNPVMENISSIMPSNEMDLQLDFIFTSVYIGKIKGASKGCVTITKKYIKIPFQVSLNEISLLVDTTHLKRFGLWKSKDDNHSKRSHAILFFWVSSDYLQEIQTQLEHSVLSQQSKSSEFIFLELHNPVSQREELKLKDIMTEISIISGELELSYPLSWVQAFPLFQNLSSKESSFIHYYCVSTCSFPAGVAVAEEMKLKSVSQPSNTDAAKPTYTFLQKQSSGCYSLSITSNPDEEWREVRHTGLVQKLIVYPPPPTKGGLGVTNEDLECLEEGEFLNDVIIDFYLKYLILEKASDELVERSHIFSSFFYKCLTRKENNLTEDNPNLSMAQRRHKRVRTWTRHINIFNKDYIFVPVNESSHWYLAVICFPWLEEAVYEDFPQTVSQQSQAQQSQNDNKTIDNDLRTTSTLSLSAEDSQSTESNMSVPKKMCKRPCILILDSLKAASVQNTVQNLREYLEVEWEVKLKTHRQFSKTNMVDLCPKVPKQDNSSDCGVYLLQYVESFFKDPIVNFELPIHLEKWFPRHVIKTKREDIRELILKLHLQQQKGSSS

[7] = biological target: T3, Sentrin-specific protease 6 (Homo sapiens, UniProt Q9GZR1); type: functional;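 note: Luminescence-based dose-response confirmatory assay of SENP6 inhibition, following up an ultra-high-throughput screen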
T3 sequence (Q9GZR1 whole entry): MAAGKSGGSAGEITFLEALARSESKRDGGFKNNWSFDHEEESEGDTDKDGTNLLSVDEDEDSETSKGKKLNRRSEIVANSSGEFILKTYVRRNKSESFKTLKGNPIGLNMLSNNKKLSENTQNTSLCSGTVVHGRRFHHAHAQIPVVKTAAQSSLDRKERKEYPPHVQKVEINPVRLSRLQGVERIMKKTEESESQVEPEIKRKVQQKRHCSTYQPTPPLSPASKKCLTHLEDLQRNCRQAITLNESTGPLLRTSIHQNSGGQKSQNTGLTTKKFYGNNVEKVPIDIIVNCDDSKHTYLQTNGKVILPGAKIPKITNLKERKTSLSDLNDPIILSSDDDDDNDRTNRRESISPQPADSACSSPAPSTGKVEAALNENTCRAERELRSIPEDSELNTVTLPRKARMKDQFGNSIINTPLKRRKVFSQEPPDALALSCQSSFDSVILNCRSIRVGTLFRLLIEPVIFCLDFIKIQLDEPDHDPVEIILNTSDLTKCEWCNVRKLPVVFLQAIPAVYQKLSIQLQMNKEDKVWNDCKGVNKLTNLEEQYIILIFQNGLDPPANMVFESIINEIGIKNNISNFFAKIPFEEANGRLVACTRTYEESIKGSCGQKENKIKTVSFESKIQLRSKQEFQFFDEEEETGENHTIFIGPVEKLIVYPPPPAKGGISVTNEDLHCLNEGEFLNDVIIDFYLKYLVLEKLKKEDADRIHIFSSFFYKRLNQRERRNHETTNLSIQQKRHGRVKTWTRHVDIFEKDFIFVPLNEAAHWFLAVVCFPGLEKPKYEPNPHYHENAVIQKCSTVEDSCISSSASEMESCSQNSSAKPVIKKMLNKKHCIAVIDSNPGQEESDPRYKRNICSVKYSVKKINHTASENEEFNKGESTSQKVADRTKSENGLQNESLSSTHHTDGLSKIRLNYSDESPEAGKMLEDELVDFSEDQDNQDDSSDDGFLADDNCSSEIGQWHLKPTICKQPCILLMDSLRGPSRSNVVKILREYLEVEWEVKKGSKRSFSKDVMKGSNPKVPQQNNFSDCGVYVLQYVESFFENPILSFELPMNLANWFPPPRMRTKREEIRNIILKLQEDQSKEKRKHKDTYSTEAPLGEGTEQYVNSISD

[8] = biological target: T4, Sentrin-specific protease 8 (Homo sapiens, UniProt Q96LD8); type: functional;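 note: luminescence read-out of SENP8 inhibition, dose-response confirmation following an ultra-high-throughput screen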
T4 sequence (Q96LD8 whole entry): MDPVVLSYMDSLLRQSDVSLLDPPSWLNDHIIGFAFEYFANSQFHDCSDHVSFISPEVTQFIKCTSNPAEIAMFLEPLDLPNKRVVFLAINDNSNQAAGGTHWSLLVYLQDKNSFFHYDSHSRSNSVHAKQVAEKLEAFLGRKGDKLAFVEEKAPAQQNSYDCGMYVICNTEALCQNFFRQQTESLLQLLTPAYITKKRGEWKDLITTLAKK

[9] = Trypanosoma cruzi growth suppression in host cells – NIH3T3 host cells, beta-gal luminescence, confirmation (AID 2044); type: functional, cell-based;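 note: intracellular parasites grown in NIH/3T3 mouse fibroblasts as host cells; luminescent beta-galactosidase reporter signal from transgenic T. cruzi replicating inside host cells; inhibitors lower the luminescence signal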
[10] = NIH3T3 cell viability loss – ATP luminescence, mouse fibroblasts, counter-screen, dose response (AID 2010); type: functional, cell-based;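 note: cells exposed to compound for about 90 hours before reading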
SUMO E1/E2 = SUMO E1/E2 (Homo sapiens, UniProt P63279+Q9UBE0+Q9UBT2); assay: SAR analysis of SUMOylation using HTRF in an in-Vitro dose response assay. [Related pubchem assays (depositor defined):AID2006, AID2011, AID2018, AID2069, AID2658]; type: functional
Hexokinase-1 = Hexokinase-1 (Homo sapiens, UniProt P19367); assay: hexokinase 1 activity inhibitors, potency – biochemical, set 2, resazurin fluorescence coupled readout, selectivity assay for HKDC1 inhibitor project, SAR follow-up (AID 588356); type: functional
Hexokinase HKDC1 = biological target: T5, Hexokinase HKDC1 (Homo sapiens, UniProt Q2TB90); assay: analog inhibition of human HKDC1 activity – biochemical, set 2, SAR follow-up (AID 588355); type: functional
T5 sequence (Q2TB90 whole entry): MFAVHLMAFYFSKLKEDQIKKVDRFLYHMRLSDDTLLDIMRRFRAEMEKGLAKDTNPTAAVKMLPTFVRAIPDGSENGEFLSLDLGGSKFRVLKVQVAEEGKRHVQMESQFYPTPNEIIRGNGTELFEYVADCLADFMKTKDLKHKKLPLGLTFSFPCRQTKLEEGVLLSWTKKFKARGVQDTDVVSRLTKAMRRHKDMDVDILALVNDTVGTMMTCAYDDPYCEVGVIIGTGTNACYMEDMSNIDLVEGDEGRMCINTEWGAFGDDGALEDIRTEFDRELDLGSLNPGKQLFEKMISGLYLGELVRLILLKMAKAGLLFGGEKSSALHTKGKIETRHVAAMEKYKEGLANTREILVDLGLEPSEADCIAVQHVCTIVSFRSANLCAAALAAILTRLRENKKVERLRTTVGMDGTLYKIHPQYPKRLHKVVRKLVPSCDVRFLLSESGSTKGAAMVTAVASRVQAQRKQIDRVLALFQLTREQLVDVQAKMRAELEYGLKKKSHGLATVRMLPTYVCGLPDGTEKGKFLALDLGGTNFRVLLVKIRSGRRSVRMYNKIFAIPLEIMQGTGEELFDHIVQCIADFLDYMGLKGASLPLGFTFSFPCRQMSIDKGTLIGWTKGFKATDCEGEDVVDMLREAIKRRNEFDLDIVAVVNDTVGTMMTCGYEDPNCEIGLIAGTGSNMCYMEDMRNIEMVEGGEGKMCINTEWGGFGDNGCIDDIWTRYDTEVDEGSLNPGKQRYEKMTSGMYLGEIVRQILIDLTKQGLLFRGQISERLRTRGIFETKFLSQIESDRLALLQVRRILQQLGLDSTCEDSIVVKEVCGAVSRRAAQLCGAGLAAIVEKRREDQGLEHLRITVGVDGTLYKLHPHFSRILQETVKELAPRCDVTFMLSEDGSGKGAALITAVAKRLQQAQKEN

[11] = NIH-3T3 fibroblast cytotoxicity, dose response, cytotoxicity control, cell-based, fluorescence, Alamar Blue, secondary assay (AID 2327); type: functional;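 note: NIH-3T3 mouse fibroblasts cultured with fluconazole at 8 µg/mL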
[12] = system: Streptococcus sp. 'group A'; assay: Streptococcus pyogenes SK(-)GAS viability under kanamycin – luminescence, BacTiterGlo, confirmation, counter-screen for streptokinase expression inhibitor project, dose response (AID 1900); type: functional, organism-based
Streptokinase A = biological target: T6, Streptokinase A (Streptococcus pyogenes serotype M1, UniProt P10520); assay: viability-normalized secreted streptokinase activity reduction – plasminogen activation absorbance, OD405, dose response (AID 1914); type: functional, Streptococcus pyogenes M1 GAS;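 note: secreted streptokinase activity via plasminogen activation per viability signal from cell pellet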
T6 sequence (P10520 whole entry): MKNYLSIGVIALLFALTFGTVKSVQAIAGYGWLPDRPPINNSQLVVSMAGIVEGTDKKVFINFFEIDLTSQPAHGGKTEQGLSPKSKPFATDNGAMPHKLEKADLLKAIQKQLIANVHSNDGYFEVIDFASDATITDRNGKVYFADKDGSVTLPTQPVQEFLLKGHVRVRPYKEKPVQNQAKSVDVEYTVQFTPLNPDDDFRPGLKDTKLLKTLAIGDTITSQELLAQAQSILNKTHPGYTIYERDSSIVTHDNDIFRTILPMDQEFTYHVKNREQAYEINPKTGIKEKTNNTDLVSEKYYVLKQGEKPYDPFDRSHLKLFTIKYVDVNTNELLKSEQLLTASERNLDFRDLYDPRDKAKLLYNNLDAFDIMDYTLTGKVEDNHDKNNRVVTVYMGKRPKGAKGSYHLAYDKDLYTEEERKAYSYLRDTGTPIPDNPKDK

[13] = fluconazole-exposed Candida albicans growth modulators – fluorescence, retest, confirmation (AID 2467); type: functional, cell-based
Streptococcus = assay: GAS UMAA2166 growth inhibition – luminescence, BacTiterGlo, counter-screen for streptokinase expression inhibitor project, dose response (AID 1915); type: functional, organism-based;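 note: potency for reduction of bacterial viability or growth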
Escherichia coli = assay: microbe, parasite or virus in culture

Sequence of Hexokinase-1 (P19367 whole entry): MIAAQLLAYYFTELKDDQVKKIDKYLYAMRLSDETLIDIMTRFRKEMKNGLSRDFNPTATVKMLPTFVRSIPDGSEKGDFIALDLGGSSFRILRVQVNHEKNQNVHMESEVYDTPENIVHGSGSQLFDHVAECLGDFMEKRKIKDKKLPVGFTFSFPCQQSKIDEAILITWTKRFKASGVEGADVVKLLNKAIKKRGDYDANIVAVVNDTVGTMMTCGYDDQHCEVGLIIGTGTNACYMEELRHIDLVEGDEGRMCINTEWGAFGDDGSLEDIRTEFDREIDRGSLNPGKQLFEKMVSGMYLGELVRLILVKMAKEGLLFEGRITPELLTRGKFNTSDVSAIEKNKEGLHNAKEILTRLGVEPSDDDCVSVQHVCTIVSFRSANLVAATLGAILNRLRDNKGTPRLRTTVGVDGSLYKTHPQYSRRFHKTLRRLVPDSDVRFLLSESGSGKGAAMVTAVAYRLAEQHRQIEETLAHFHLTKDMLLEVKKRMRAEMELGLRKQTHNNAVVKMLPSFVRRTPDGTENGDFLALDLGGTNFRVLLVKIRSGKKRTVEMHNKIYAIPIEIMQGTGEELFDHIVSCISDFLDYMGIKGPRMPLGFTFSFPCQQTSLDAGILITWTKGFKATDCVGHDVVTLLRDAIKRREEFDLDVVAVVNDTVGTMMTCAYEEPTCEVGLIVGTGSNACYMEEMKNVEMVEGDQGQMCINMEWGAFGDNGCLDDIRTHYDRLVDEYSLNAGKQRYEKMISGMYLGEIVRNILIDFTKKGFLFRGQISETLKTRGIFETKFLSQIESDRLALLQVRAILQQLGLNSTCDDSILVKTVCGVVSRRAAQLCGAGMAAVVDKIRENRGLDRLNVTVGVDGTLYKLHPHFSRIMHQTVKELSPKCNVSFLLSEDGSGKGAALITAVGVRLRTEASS
Sequence of 26S proteasome non-ATPase regulatory subunit 14 (O00487 whole entry): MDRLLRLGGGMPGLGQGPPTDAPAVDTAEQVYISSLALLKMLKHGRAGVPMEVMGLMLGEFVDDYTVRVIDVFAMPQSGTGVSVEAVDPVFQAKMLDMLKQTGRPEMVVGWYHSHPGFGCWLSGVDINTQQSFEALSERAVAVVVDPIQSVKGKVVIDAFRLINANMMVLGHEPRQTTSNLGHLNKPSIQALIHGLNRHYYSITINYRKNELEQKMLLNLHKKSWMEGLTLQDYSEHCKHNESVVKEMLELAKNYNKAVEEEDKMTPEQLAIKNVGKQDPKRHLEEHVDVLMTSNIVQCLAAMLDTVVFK
Sequence of SUMO E1/E2 (Q9UBE0 whole entry): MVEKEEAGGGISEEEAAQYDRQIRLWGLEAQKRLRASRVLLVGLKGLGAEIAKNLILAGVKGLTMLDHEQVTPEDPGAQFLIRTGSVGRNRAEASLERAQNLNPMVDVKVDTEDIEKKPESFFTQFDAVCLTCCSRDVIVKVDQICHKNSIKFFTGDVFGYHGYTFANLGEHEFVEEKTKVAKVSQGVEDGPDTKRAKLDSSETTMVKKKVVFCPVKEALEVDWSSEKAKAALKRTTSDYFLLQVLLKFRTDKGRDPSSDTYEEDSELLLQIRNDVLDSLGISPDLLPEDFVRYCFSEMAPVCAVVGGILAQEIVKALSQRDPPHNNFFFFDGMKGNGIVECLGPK
Sequence of SUMO E1/E2 (Q9UBT2 whole entry): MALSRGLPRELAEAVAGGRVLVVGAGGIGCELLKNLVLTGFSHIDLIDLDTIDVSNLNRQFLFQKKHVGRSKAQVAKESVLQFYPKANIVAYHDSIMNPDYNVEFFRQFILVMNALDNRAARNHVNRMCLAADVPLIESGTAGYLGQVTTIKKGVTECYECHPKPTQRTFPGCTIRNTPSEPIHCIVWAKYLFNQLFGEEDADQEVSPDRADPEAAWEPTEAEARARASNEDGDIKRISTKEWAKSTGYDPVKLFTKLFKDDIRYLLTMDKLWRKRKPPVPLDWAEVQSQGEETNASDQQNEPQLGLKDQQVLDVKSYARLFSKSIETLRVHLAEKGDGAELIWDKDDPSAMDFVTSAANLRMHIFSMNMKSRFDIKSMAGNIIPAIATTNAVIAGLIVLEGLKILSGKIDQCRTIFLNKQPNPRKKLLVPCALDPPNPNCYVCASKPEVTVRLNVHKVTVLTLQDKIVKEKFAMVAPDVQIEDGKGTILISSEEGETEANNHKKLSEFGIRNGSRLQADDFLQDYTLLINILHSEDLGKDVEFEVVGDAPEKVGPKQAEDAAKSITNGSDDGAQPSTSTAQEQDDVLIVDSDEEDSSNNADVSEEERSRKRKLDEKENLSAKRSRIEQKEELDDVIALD
Sequence of SUMO E1/E2 (P63279 whole entry): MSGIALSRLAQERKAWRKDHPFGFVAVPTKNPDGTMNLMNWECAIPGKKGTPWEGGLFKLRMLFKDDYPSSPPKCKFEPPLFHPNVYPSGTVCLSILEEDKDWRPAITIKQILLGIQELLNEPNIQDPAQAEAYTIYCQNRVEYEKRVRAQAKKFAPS
Sequence of 72 kDa type IV collagenase (P08253 whole entry): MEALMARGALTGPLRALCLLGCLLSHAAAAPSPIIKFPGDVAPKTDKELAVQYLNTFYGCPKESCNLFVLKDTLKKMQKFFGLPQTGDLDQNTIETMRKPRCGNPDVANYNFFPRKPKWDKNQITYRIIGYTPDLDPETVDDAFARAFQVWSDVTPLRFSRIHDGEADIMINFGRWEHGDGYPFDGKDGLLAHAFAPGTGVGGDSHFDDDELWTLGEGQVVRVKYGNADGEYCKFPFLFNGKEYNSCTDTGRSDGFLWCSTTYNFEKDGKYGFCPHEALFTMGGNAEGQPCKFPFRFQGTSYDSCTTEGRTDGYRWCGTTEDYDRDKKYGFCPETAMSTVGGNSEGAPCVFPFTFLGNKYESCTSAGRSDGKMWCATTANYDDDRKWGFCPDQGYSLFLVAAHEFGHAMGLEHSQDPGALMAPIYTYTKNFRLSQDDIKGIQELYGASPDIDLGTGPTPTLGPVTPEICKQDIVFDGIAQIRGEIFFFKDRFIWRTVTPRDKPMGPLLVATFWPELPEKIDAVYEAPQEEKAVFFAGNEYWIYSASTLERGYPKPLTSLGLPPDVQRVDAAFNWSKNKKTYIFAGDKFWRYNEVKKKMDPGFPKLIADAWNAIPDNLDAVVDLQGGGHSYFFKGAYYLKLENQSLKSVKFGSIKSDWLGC

In the case of `Cc1cc(C)c2nc(NCc3ccccc3O)sc2c1`, the AC50 (HeLa) is reported as 42.4 µM (active).
For `Cc1occc1C(=O)/C(C#N)=C/c1ccc(O)c(Br)c1`, the AC50 [1] was 7.25 µM (active), the IC50 [2] was 9.83 µM (active) and the IC50 [3] was > 100 µM (inactive). For the same molecule, the IC50 (Prothrombin) was 12.1 µM (active).
With `CC1(C)CC(/C=C/c2ccccc2)=Nc2ccccc2N1` the AC50 (HeLa) was 37.3 µM (active).
In the case of `CCN1CCc2c(C#N)c(N3CCCCC3)nc(NCc3ccccc3)c2C1`, the EC50 [4] is reported as 20.1 µM (active), the EC50 [5] is reported as 17.9 µM (active) and the CC50 (Vero) is reported as > 25 µM (active).
For `COc1c(O)ccc(/C=C(\C#N)c2nc3ccccc3[nH]2)c1[N+](=O)[O-]`, the IC50 (Caspase-3) was 31.1 µM (active), the IC50 [6] was 15.1 µM (active) and the IC50 [7] was 25.9 µM (active). The IC50 [8] was 35.9 µM (active) and the AC50 [1] was 2.77 µM (active).
For `Cc1ccc(Sc2nnc(Cc3ccccc3)c3ccccc23)cc1`, the EC50 [9] was 1.95 µM (active), the EC50 [10] was > 60 µM (not active) and the CC50 (Vero) was > 25 µM (active).
In the case of `COc1ccc2c(c1)C(NC(C)=O)C(=O)N2CCN1CCOCC1` (stereo not drawn), the IC50 (SUMO E1/E2) is reported as 9.45 µM (active), the IC50 (Hexokinase-1) is reported as > 80 µM (inactive) and the IC50 (Hexokinase HKDC1) is reported as 8.31 µM (active).
In the case of `COc1cc2c(cc1OC)-c1cc(Nc3ncn[nH]3)nc(=O)n1CC2`, the IC50 (Hexokinase-1) is reported as > 80 µM (inactive) and the IC50 (Hexokinase HKDC1) is reported as > 80 µM (inactive).
With `C/C(=C\C(=O)OCCCCCCCCC(=O)O)C[C@@H]1OC[C@H](C[C@@H]2O[C@H]2[C@@H](C)[C@H](C)O)[C@@H](O)[C@H]1O` [MUPIROCIN] the EC50 [11] was > 150 µM (inactive), the EC50 [12] was < 0.06 µM (active) and the EC50 (Streptokinase A) was 0.423 µM (active). For the same molecule, the EC50 [13] was > 38 µM (not active), the EC50 (Streptococcus) was < 0.06 µM (active) and the AC50 (Escherichia coli) was 4.99 µM (active).
